Data from patent US8993559B2, “Use of ibogamine congeners for treating obesity” (Albany Medical College, priority 2008, dated 2015).

What was measured:
Format in all cases: in vivo, rat
rats [1] = assay: Local administration of 18-MC into brain sites: drug self-administration and responding for sucrose
From the text: FIG. 8 is a graph showing effects of local infusion of 18-MC into the basolateral amygdala on methamphetamine self-administration and responding for sucrose. Baseline methamphetamine infusions averaged (S.E.M.) 20.2±0.9 while baseline responding for sucrose averaged (S.E.M.) 27.1±2.1. Each data point represents the mean (S.E.M.) percent of baseline of 6-9 rats. (*=p<0.05-0.01).
Although the medial habenula and the interpeduncular nucleus are the brain regions having the highest concentrations of α3β4 nicotinic receptors, moderate densities of these receptors are localized in the ventral tegmental area, in the basolateral amygdala, and in the dorsolateral tegmentum (caudal pedunculopontine and laterodorsal tegmental nuclei). […] The basolateral amygdala has also been very much implicated in reward-related phenomena, and associated with both stimulants and sucrose. Accordingly, to further investigate brain sites mediating 18-MC's effects on drug self-administration, it was determined if local administration of 18-MC into the dorsolateral tegmentum or basolateral amygdala would alter drug self-administration, the other three sites having already been examined. As done previously, sucrose (15%) was used as a control, non-drug reinforcer. Previously, local administration of 18-MC had no effect on responding for sucrose regardless of whether it was infused into the medial habenula, interpeduncular nucleus, or ventral tegmental area. […] The neural substrates for 18-MC's effects on morphine and sucrose self-administration clearly appear to be different, although both may involve α3β4 nicotinic receptors.

rats [2] = assay: Drug self-administration and water-reinforced responding in rats (earlier studies)
Procedure: Other work has extended the “anti-addictive” effect of 18-MC to oral intake of ethanol. In all cases, these effects last for at least 24 hours. […] Unlike 18-MC, ibogaine and many other iboga alkaloid congeners (approximately 30 tested) decrease responding for water as well as for drugs. And it was precisely this unique specificity that led to development and study of 18-MC.

[3] = Weight gain of rats on high fat or low fat diet
Procedure: FIG. 12 is a graph showing effects of 18-MC (20 mg/kg i.p.) on weight gain of rats. Each data point represents daily weight (g, ±S.E.M.) of rats having access to high fat (HF) or low fat (LF) diet and water, and treated with 18-MC or vehicle. The black bar indicates the duration of treatment with 18-MC: =<0.05, 18-MC vs vehicle.
The development of obesity in rats maintained on a high fat diet is perhaps the commonly used animal model of diet-induced obesity.

rats [4] = assay: Ad libitum sucrose intake over 24 hours (choice of sucrose or water)
Procedure: FIG. 9 is a graph showing effects of 18-MC (10, 20, 40 mg/kg i.p.) on consumption of sucrose. Each bar represents mean 24 hour consumption of 5% sucrose solution expressed as percent of baseline (S.E.M.): *=p<0.05.
As described above, systemic 18-MC can decrease operant responding for sucrose and local administration of 18-MC into the dorsolateral tegmentum can also do so. These findings, which were unanticipated, led to investigation of the possibility that 18-MC might be useful in decreasing intake of sweet substances when available ad libitum along with normal rat chow. Rats offered a choice of drinking sucrose (15%) or water have strong preferences (70-80%) for sucrose. […] Whether 18-MC's effect on sucrose intake has a consequence in terms of body weight regulation was explored in a subsequent study. Rats given unlimited access to sucrose (30%) for two weeks gained excessive weight, consistent with other studies of sucrose-induced obesity. […] 18-MC had no effect on the body weight of “normal” rats having only water available.

Sprague-Dawley rats = assay: Palatable liquid consumption, two-bottle paradigm (19-h sessions); conditions: for water consumption: water/water control
Procedure: Naïve female Sprague-Dawley rats (230-270 g; Taconic, Germantown, N.Y.) were housed individually and maintained on a normal 12 hr light cycle (light on/off at 7 a.m./7 p.m.) in the colony room. For all experiments, food (normal chow) and water were provided ad libitum. The experiments were conducted in accordance with the “Guide for the Care and Use of Laboratory Animals” (National Academy of Sciences, 1996).
On the first day of the experiment, the regular cage tops were replaced with custom-made cage tops containing metal holders for two 100-ml graduated glass bottles (Lab Products Inc., Seaford, Del.); the bottles were placed approximately 2″ apart. Different groups of rats were allowed 19-h (3.30 p.m.-10.30 a.m.) unlimited access to water and 5% sucrose, water and 0.1% saccharine, water and 0.6% saline, or water and water. The concentrations were chosen in accordance with previous reports using similar two-bottle drinking paradigms. See Dess, N. K., Physiol Behav., 69: 247-257 (2000) and Warwick, Z. S. et al., Physiol Behav, 60: 711-715 (1996), which are hereby incorporated by reference in their entirety. The animals were maintained on a normal chow during these sessions. The bottles with palatable fluids were removed at the end of the 19-h sessions, but water and chow remained always available. The consumption of palatable fluids and water during the sessions were recorded on a daily basis for four consecutive sessions: two initial baseline sessions, one treatment session and one port-treatment session. The baseline consumption levels of fluids were established during the initial two sessions; immediately before the third session, animals were injected with 18-MC (10, 20, or 40 mg/kg i.p.) or vehicle. To account for possible side preferences of rats, the bottle sides were switched daily; animals expressing strong side preferences during the baseline sessions were excluded from further analysis. Each animal was used for four weeks, receiving three different dosages of 18-MC and vehicle in random order.
The average levels of fluid consumption (ml) during the first two sessions (baseline), as well as consumption during the post-injection session and the recovery session, were compared by two-way ANOVA using treatment and session as main factors; this analysis was followed by one-way ANOVAs for each treatment group and post-hoc tests when appropriate.

[5] = saccharin/water experiment, 10, 20 and 40 mg/kg i.p.
[6] = sucrose/water experiment, 10, 20 and 40 mg/kg i.p.

For COCC[C@H]1CC2CN3CCc4c([nH]c5ccccc45)[C@](C(=O)OC)(C2)[C@H]13 [18-MC, 18-methoxycoronaridine], which responding for sucrose (rats [1]; infused into the medial habenula, interpeduncular nucleus, or ventral tegmental area (previous work)) is on record?
The responding for sucrose was “no effect”.

And the methamphetamine self-administration (rats [1]; local administration into the basolateral amygdala)?
The methamphetamine self-administration was “decreased”.

What about the responding for sucrose (rats [1]; local administration into the basolateral amygdala, 15% sucrose) of the same compound?
The responding for sucrose was “decreased”.

What about the “morphine or methamphetamine self-administration” value (rats [1]; local administration into the dorsolateral tegmentum) of the same compound?
Its value is “no effect”.

And the responding for sucrose (rats [1]; local administration into the dorsolateral tegmentum, 15% sucrose)?
Its responding for sucrose is “decreased”.

And the “decrease of drug self-administration” value (rats [2]; 20 mg/kg, i.p., depending on the drug)?
The value was 40-80%.

And the motor effects (rats [2]; at times when self-administration is decreased)?
Its motor effects is “no motor effects”.

What about the “duration of effects on drug self-administration” value (rats [2]; rat, in vivo) of the same compound?
Its value is “at least 24 hours”.

What about the “effect on oral intake of ethanol” value (rats [2]; rat, in vivo, po) of the same compound?
Its value is “anti-addictive”.

And the “cocaine, methamphetamine and nicotine self-administration” value (rats [2]; rats)?
The value was “decreases”.

And the morphine self-administration (rats [2]; rats)?
The morphine self-administration was “dose-dependently decreases”.

What about the “responding for water (non-drug reinforcer)” value (rats [2]; same doses that decrease drug self-administration) of the same compound?
Its value is “do not affect”.

And the “excessive weight gain attributable to the high fat diet” value ([3]; 18-MC 20 mg/kg i.p. daily for two weeks, 45 kcal % fat)?
Its value is “totally prevented”.

What about the “decrease of weights of fat depots in HF rats” value ([3]; 18-MC 20 mg/kg i.p. for two weeks, high fat diet) of the same compound?
The value was “about 35%”.

And the “decrease of weights of fat depots in LF rats” value ([3]; 18-MC 20 mg/kg i.p. for two weeks, low fat diet (10 kcal % fat))?
The value was “not in LF rats”.

And the “water intake over the 24 hours following administration” value (rats [4]; 18-MC 10-40 mg/kg i.p.)?
The value was “no significant effect”.

And the “intake of sucrose over the 24 hours following administration” value (rats [4]; 18-MC 10-40 mg/kg i.p., sucrose (15%) or water)?
Its value is “decreased”.

And the “ceiling dose beyond which no further effect on ad libitum sucrose intake” value (rats [4]; dose range 10-40 mg/kg i.p.)?
The value was 10 mg/kg.

What about the “saccharin intake, recovery session” value (Sprague-Dawley rats; 0.1% saccharin/water, 10 mg/kg i.p.) of the same compound?
The value was “reduced intake”.

What about the “saccharin intake, post-injection session vs baseline” value (Sprague-Dawley rats; 0.1% saccharin/water, 10, 20 and 40 mg/kg i.p.) of the same compound?
The value was “significantly less”.

And the “saline consumption vs baseline” value (Sprague-Dawley rats; 0.6% saline/water, 10 mg/kg i.p.)?
Its value is “remained unchanged”.

And the “saline consumption vs baseline” value (Sprague-Dawley rats; 0.6% saline/water, 20 and 40 mg/kg i.p., 19 h following injection)?
The value was “reduced”.

And the “effect on saline consumption, recovery session” value (Sprague-Dawley rats; 0.6% saline/water, highest dose (40 mg/kg i.p.))?
The value was “also significant”.

And the “sucrose intake, recovery session” value (Sprague-Dawley rats; 5% sucrose/water, 10, 20 and 40 mg/kg i.p.)?
The value was “returned to baseline”.

What about the “sucrose consumption, post-injection session vs baseline” value (Sprague-Dawley rats; 5% sucrose/water, 10, 20 and 40 mg/kg i.p., 19-h session) of the same compound?
Its value is “significantly reduced”.

And the “selectivity for reducing consumption of sucrose and saccharin relative to water” value (Sprague-Dawley rats; control water/water experiment vs two-bottle experiments)?
The value was “at least four-fold”.

And the “ceiling effect dose, consumption of sucrose and saccharin” value (Sprague-Dawley rats; dose range 10-40 mg/kg i.p.)?
Its value is 10 mg/kg.

And the “ceiling effect dose, saline consumption” value (Sprague-Dawley rats; dose range 10-40 mg/kg i.p.)?
Its value is 20 mg/kg.

And the “effect on total fluid consumption, recovery session” value (Sprague-Dawley rats; saccharin/water experiment, 10 mg/kg i.p.)?
The value was “remained significant”.

What about the “total fluid consumption (FIG. 3C), 19 h after injection” value (Sprague-Dawley rats; [5]) of the same compound?
Its value is “reduced”.

And the “water consumption across sessions” value (Sprague-Dawley rats; [5])?
The value was “not altered”.

And the total fluid consumption (Sprague-Dawley rats; saline/water experiment, 10 mg/kg i.p.)?
The total fluid consumption was “remained unchanged”.

And the “water consumption across sessions” value (Sprague-Dawley rats; saline/water experiment, 10, 20 and 40 mg/kg i.p.)?
The value was “not different across sessions”.

What about the total fluid consumption (Sprague-Dawley rats; saline/water experiment, 20 and 40 mg/kg i.p.) of the same compound?
The total fluid consumption was “significantly reduced”.

And the “effect on total fluid consumption, recovery session” value (Sprague-Dawley rats; saline/water experiment, highest dose (40 mg/kg i.p.))?
The value was “also significant”.

And the “total fluid consumption, post-injection session vs baseline” value (Sprague-Dawley rats; [6])?
Its value is “reduced”.

What about the “water consumption across sessions” value (Sprague-Dawley rats; [6]) of the same compound?
The value was “remained stable”.

And the water consumption (Sprague-Dawley rats; 40 mg/kg i.p.)?
The water consumption was “significantly reduced”.

What about the water consumption (Sprague-Dawley rats; 10 and 20 mg/kg i.p.) of the same compound?
Its water consumption is “remained unchanged”.
